Source: ChEMBL document CHEMBL4184137, “Lysine Deacetylase Inhibitors in Parasites: Past, Present, and Future Perspectives” (J Med Chem, 2017)
pIC50: −log10 of the molar value. *1 amine or outer side, *2 acyl side, *3 side chain or, on linkers, in order; H or OH if unused. Where a SMILES comes first, the peptide text is derived from it. Bridges are numbered along the chain shown (N, C = ends). [ ]: non-standard residue; d: D form. X1 = CC(C)CCCCCCCCC[C@H](CC(=O)[*:1])O[*:2]

Tests used:
Plasmodium falciparum [1] = experiment: Antiplasmodial activity against Plasmodium falciparum 3D7 assessed as growth inhibition after 24 hrs by measuring incorporation of [3H]-hypoxanthine by liquid scintillation counting method; format: functional, organism-based
[2] = molecular target: T1, NAD-dependent protein deacetylase sirtuin-1 (Homo sapiens, UniProt Q96EB6); experiment: Inhibition of human SIRT1
T1 sequence (Q96EB6 whole entry): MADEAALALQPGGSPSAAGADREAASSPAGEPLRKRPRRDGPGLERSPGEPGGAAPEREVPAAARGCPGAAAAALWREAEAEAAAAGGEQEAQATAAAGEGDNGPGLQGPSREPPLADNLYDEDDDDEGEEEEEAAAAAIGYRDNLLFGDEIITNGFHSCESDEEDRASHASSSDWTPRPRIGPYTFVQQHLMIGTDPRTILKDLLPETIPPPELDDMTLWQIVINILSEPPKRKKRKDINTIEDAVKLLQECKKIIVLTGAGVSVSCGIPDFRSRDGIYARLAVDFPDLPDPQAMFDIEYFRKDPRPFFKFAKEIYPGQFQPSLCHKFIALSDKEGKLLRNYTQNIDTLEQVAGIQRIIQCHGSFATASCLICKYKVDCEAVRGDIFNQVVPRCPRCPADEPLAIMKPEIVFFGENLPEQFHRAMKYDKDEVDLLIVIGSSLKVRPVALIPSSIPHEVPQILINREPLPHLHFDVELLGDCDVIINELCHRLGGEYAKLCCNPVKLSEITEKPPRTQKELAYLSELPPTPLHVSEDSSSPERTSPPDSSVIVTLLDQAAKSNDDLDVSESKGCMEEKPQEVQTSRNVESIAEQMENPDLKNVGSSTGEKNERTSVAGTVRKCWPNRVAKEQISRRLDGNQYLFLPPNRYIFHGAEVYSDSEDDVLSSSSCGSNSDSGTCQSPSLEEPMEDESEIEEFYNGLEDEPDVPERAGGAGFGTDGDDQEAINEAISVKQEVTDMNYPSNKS

[3] = Inhibition of Plasmodium falciparum Sir2A
Trypanosoma brucei [4] = experiment: Inhibition of recombinant Trypanosoma brucei HDAC1 at 5 uM after 30 mins
[5] = tested on: Trypanosoma brucei brucei; experiment: Antitrypanosomal activity against Trypanosoma brucei brucei measured after 22 hrs by fluorescence-based Alamar blue viability assay; format: functional, organism-based
Trypanosoma brucei [6] = experiment: Inhibition of recombinant Trypanosoma brucei HDAC3 at 5 uM after 30 mins
Toxoplasma gondii = experiment: Antiparasitic activity against tachyzoite stage of Toxoplasma gondii; format: functional, organism-based
Plasmodium falciparum [7] = experiment: Gametocytocidal activity against transgenic GFP-fused Plasmodium falciparum NF54 […] gametocytes after 24 hrs by MitoTracker Red CM-H2XRos late-stage gametocyte imaging-based viability assay; format: functional, organism-based; settings: NF54, 24 h
Plasmodium falciparum [8] = experiment: Antimalarial activity against Plasmodium falciparum infected in type O-positive erythrocytes by [3H]-hypoxanthine incorporation assay; format: functional, organism-based
NFF = experiment: Cytotoxicity against human NFF cells after 72 hrs by SRB assay; format: cell-based
[9] = Selectivity index, ratio of IC50 for human NFF cells to IC50 for Plasmodium falciparum; format: toxicity; settings: read-out: Ratio IC50
[10] = Selectivity index, ratio of IC50 for human NFF cells to IC50 for transgenic GFP-fused Plasmodium falciparum NF54 […] gametocyte; format: toxicity; settings: read-out: Ratio IC50
Leishmania infantum [11] = experiment: Antileishmanial activity against amastigote stage of Leishmania infantum MHOM/MA671TMAP263 expressing luciferase after 72 hrs by luciferase assay; format: functional, organism-based; settings: MHOM/MA671TMAP263, 72 h
Schistosoma mansoni [12] = experiment: Antiparasitic activity against Schistosoma mansoni assessed as cumulative egg reduction at 20 uM; format: functional; design: scale not given: the % may be the effect or the level left
Schistosoma mansoni [13] = experiment: Antiparasitic activity against Schistosoma mansoni assessed cell viability at 20 uM after 5 days; format: functional
Leishmania infantum [14] = experiment: Antiproliferative activity against promastigote stage of Leishmania infantum measured for 1 min and 45 secs by propidium iodide staining-based flow cytometry; format: functional, organism-based
Schistosoma mansoni [15] = experiment: Antiparasitic activity against Schistosoma mansoni assessed as pairing at 20 uM after 6 days relative to control; format: functional
Leishmania infantum [16] = experiment: Antiproliferative activity against amastigote stage of Leishmania infantum measured for 1 min and 45 secs by propidium iodide staining-based flow cytometry; format: functional, organism-based
Plasmodium falciparum [17] = experiment: Antimalarial activity against Plasmodium falciparum using Malstat reagent by parasite lactate dehydrogenase assay; format: functional, organism-based
[18] = Selectivity index, ratio of IC50 for African green monkey Vero cells to IC50 for Plasmodium falciparum W2; format: toxicity; settings: read-out: Ratio IC50
Leishmania donovani [19] = experiment: Antilieshmanial activity against amastigote stage of Leishmania donovani by fluorimetric assay; format: functional, organism-based
Histone deacetylase = molecular target: T2, Histone deacetylase (Plasmodium falciparum, UniProt Q9XYC7); experiment: Inhibition of recombinant Plasmodium falciparum HDAC1 using HDAC substrate-3 after 30 mins by fluorescence assay
T2 sequence (Q9XYC7 whole entry): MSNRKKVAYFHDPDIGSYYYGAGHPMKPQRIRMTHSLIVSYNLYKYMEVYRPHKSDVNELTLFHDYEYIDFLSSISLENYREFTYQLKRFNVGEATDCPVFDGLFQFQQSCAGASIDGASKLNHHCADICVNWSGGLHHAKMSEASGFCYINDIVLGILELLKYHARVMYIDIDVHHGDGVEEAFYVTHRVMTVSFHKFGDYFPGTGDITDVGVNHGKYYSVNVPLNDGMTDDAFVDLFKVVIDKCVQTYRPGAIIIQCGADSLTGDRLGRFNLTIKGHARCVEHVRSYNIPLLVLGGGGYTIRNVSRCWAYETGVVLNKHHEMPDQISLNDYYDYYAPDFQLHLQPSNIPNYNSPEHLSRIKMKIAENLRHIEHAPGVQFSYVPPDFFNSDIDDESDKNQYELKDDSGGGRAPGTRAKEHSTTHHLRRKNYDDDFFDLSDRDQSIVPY

Leishmania donovani [20] = experiment: Antilieshmanial activity against promastigote stage of Leishmania donovani by fluorimetric assay; format: functional, organism-based
[21] = Selectivity index, ratio of IC50 for African green monkey Vero cells to IC50 for Plasmodium falciparum D6; format: toxicity; settings: read-out: Ratio IC50

With `CC(C)CCCCCCCCC[C@@H]1CC(=O)N[C@@H](CCC(=O)O)C(=O)N[C@@H](CC(C)C)C(=O)N[C@H](CC(C)C)C(=O)N[C@@H](C(C)C)C(=O)N[C@@H](CC(=O)O)C(=O)N[C@H](CC(C)C)C(=O)N[C@@H](CC(C)C)C(=O)O1` [SURFACTIN] (EL[dL]VD[dL]L; linker N-C via X1) the pIC50 (Plasmodium falciparum [1]) was 5.05, the pIC50 [2] was less than 3.22 and the pIC50 [3] was 4.46.
`CC(/C=C/C(=O)NO)=C\[C@@H](C)C(=O)c1ccc(N(C)C)cc1` [TRICHOSTATIN] gave an inhibition (Trypanosoma brucei [4]) greater than 50%, a pIC50 [5] of 5.15 and an inhibition (Trypanosoma brucei [6]) greater than 50%. For the same molecule, the pIC50 (Toxoplasma gondii) was 7.39.
`O=C(CCCCCONC(=O)Nc1cccc2ccccc12)NO` gave a pIC50 (Plasmodium falciparum [7]) of 5.65 to 5.67, a pIC50 (Plasmodium falciparum [8]) of 6.49 to 6.60 and a pIC50 (NFF) of 4.71. It also gave a selectivity ratio [9] of 36 to 78 and a selectivity ratio [10] of 9.
`CC(NC(=O)c1ccccc1/N=C/c1c(O)ccc2ccccc12)c1ccccc1` (stereo unspecified) [SIRTINOL] showed a pIC50 (Leishmania infantum [11]) of 4.52, a pIC50 (Plasmodium falciparum [1]) of 4.89 to 5.05 and an Activity (Schistosoma mansoni [12]) of 42%. The Activity (Schistosoma mansoni [13]) was 100%, the pIC50 (Leishmania infantum [14]) was less than 4.22 and the Activity (Schistosoma mansoni [15]) was 75%. For the same molecule, the pIC50 [3] was less than 4.30 and the pIC50 (Leishmania infantum [16]) was 4.52.
For `CC[C@H]1OC(=O)[C@H](C)[C@@H](O[C@H]2C[C@@](C)(OC)[C@@H](O)[C@H](C)O2)[C@H](C)[C@@H](O[C@@H]2O[C@H](C)C[C@H](N(C)Cc3ccc(-c4cn(CCCCCCCCCC(=O)NO)nn4)cc3)[C@H]2O)[C@](C)(O)C[C@@H](C)C(=O)[C@H](C)[C@@H](O)[C@]1(C)O`, the pIC50 (Plasmodium falciparum [17]) was 5.88 to 6.12, the selectivity ratio [18] was greater than 6 and the pIC50 (Leishmania donovani [19]) was 5.33. For the same molecule, the pIC50 (Histone deacetylase) was 6.40, the pIC50 (Leishmania donovani [20]) was 5.49 and the selectivity ratio [21] was greater than 3.4.
